Four compounds from patent US20220160652A1, “USE OF VITAMIN K IN COMBINATION WITH ANTICOAGULANTS” (KAYDENCE PHARMA AS, priority 2019, published 2022) can be followed below.

“Also recorded” adds a separate entry of the source.

The test system of test [1] is VSMCs. The experiment in a line: Hypoxia (CoCl2) induced oxidative stress in VSMCs (DCFDA). In kind it is cell-based. Here is the method: This study was performed to determine whether intracellular oxidative stress in VSCMs is derived from mitochondrial dysfunction. To perform this study, VSMCs were incubated with cobalt chloride, a known stabilizer of HIF1a. Cobalt chloride binding to HIF1a prevents the degradation of HIF1a and thus results in a cellular hypoxia state. HIF1a has been implicated in cancer biology as well as a number of other pathophysiologies, specifically in areas of vascularization and angiogenesis, energy metabolism, cell survival, and tumor invasion. Under normal circumstances, after injury, HIF1a is degraded by the enzyme prolyl hydroxylase (PHD). The continued up-regulation of HIF1 a (mimicked by cobalt chloride) promotes tumor growth and metastasis through its role in initiating angiogenesis and regulating cellular metabolism to overcome hypoxia. Hypoxia promotes apoptosis in both normal and tumor cells. Additionally, hypoxia generates significant intracellular oxidative stress.
To perform the study, VSMCs (10,000 cells/well) were plated in a 96-well plate and left to adhere overnight. Next, the medium was changed to a medium supplemented with 50 μM CoCl2 for 19 hours. The next day, cells were washed and incubated for 1 hour with 20 μM DCFDA in the presence of a vehicle (solvent for CoCl2 and vitamin K2 (MK-7)/UQ10), 10 μM vitamin K2 (MK-7), or 10 μM UQ10 in medium. The medium was then changed to a medium supplemented with vehicle, vitamin K2 (MK-7)/UQ10, or CoCl2, and fluorescent was measured for 6 hours. Fluorescence intensity was normalized for cell count.

For a further test, the system named is Sprague-Dawley rats. The experiment in a line: T-TAS thrombus formation in whole blood of treated Sprague-Dawley rats. In kind it is in vivo, rat. As to the method: This experiment was conducted in order to evaluate the effects of vitamin K2 (MK-7) on the anticoagulant activity of the new oral anticoagulants (NOAC) rivaroxaban and dabigatran using the T-TAS Total Thrombus-formation Analysis System. The T-TAS Total Thrombus-formation Analysis System is a microchip-based flow chamber system capable of evaluating whole-blood thrombogenicity. It is a useful tool in monitoring the efficacy of anticoagulants on thrombus formation and predicting the risk of bleeding complications. To perform the study, 45 wild-type male Sprague-Dawley and 45 transgenic male Ren-2 rats [TGR(mREN-2)27] at the age of 10-11 weeks at the beginning of the treatment period were purchased from animal facility IKEM-CEM Institute of Clinical and Experimental Medicine (Prague, Czech Republic). All animals in the experiment were housed in individually ventilated cages (2-3 rats per cage) and kept in the animal rooms of JCET at a relative humidity of 55±10%, a temperature of 22±2 ° C., and a light cycle of 7 AM to 7 PM. The rats had free access to food and water. After delivery, animals were randomly divided into 10 experimental groups (5 or 10 rats per group), as indicated below in Table 1. Four days before the start of the treatment, the first part of animals' body weight and food intake was measured in selected representative three cages (rats n=9) to calculate the appropriate amount of tested compounds required for addition to the diet to obtain the dosing indicated in Table 1. It was estimated that food intake was approximately 30 g of chow per rat per day. […] The body mass of the rats was measured at the beginning and at the end of treatment. At the beginning and at the end of treatment, the food intake per day was measured in representative group of animals to monitor the daily dosing of tested compounds (per kg of body mass). The thrombus formation in vitro was measured in whole blood using a microchip-based flow chamber system according to manufacturers' protocol (Total Thrombus-formation Analyser System, T-TAS; Fujimori Kogyo Co., Ltd., Tokyo, Japan). […]

Test [2] deals with transgenic Ren-2 rats [TGR(mREN-2)27]. Description: T-TAS thrombus formation in whole blood of treated TGR (Ren-2) rats. The format is in vivo, rat. Here is the method: This experiment was conducted in order to evaluate the effects of vitamin K2 (MK-7) on the anticoagulant activity of the new oral anticoagulants (NOAC) rivaroxaban and dabigatran using the T-TAS Total Thrombus-formation Analysis System. The T-TAS Total Thrombus-formation Analysis System is a microchip-based flow chamber system capable of evaluating whole-blood thrombogenicity. It is a useful tool in monitoring the efficacy of anticoagulants on thrombus formation and predicting the risk of bleeding complications. […] Four days before the start of the treatment, the first part of animals' body weight and food intake was measured in selected representative three cages (rats n=9) to calculate the appropriate amount of tested compounds required for addition to the diet to obtain the dosing indicated in Table 1. […] The body mass of the rats was measured at the beginning and at the end of treatment. At the beginning and at the end of treatment, the food intake per day was measured in representative group of animals to monitor the daily dosing of tested compounds (per kg of body mass). The thrombus formation in vitro was measured in whole blood using a microchip-based flow chamber system according to manufacturers' protocol (Total Thrombus-formation Analyser System, T-TAS; Fujimori Kogyo Co., Ltd., Tokyo, Japan). […]

For test [3], the system named is VSMCs. Description: ATP increase, 24 h incubation (luminescence). The format is cell-based. The note with it: 10 μM, p=0.014 for MK-7. As to the method:
This study was performed to determine if vitamin K2 (MK-7) affects ATP generation. ATP is generated via glycolysis in the cytoplasm and via both the Krebs-cycle and oxidative phosphorylation in the mitochondria. ATP generation via glycolysis delivers only 2 ATP, whereas ATP generation in the mitochondria generates some 32 ATP.
(§1) To perform this study, VSCMs (5000 cells/well) were plated in 96-well plates and left to adhere overnight. Next, cells were incubated for 24 hours with either vehicle, vitamin K2 (MK-7) (10 μM), or UQ10 (10 μM). Hoechst was added to correct for cell number (1 μg/mL). Next, ATP was measured using mammalian lysis buffer for 5 minutes after which 50 μL ATP substrate solution was added to the wells and incubated for 10 minutes in a dark environment. Finally, the medium was transferred to a white plate to measure luminescence

For test [4], the system named is VSMCs. The experiment in a line: ATP increase, 48 h incubation with CoCl2 comparison (luminescence). In kind it is cell-based. The note with it: 10 μM, vs CoCl2 100 μM. As to the method: as §1, with “This study was performed to further investigate the origin of ATP production that is influenced by vitamin K2 (MK-7). To” for “To”, “for 48” for “for 24”, “vehicle, CoCl2 (100 μM),” for “vehicle,”, “5 minutes,” for “5 minutes”, “Finally,” for “Finally, the”, “measure luminescence.” for “measure luminescence”

Test [5] relates to VSMCs. The experiment in a line: Warfarin-induced oxidative stress in VSMCs, warfarin concentration series (DCFDA). In kind it is cell-based. The note with it: warfarin 10 to 100 μM, 6 hours. As to the method:
It is known that the level of reactive oxygen species in cells can be measured by measuring the conversion of 2′,7′—dichlorofluorescein diacetate (DCFDA) to the fluorescent dye 2′,7′-dichlorofluorescein (DCF). The fluorescence generated by cells subjected to DCFDA is directly proportional to the amount of oxidized DCFDA to DCF.
In this study, vitamin K metabolism was blocked using the vitamin K-antagonist warfarin. The study was conducted to investigate whether interference with vitamin K metabolism would cause intracellular oxidative stress. To perform the study, VSMCs (10,000 cells/well) were plated in 96-well plates and left to adhere overnight. Next, cells were incubated for 1 hour with 20 μM DCFDA.
The medium was then changed to a medium supplemented with different concentrations of warfarin ranging from 10 to 100 μM, and fluorescence intensity was measured over 6 hours. Fluorescence was normalized for number of cells.

As to `[Cl][Co][Cl]` [CoCl2, cobalt chloride], the “oxidative stress induced by cobalt chloride” value in the test on VSMCs [1] (50 μM CoCl2) was “induces increased oxidative stress”.

`O=C(NC[C@H]1CN(c2ccc(N3CCOCC3=O)cc2)C(=O)O1)c1ccc(Cl)s1` [Rivaroxaban, rivaroxaban, reference compound]: the figures for the thrombus formation result (in the test with Sprague-Dawley rats; in test [2]) were “inhibited thrombus formation” and “also inhibited thrombus formation”, respectively. With `COC1=C(OC)C(=O)C(C/C=C(\C)CC/C=C(\C)CC/C=C(\C)CC/C=C(\C)CC/C=C(\C)CC/C=C(\C)CC/C=C(\C)CC/C=C(\C)CC/C=C(\C)CCC=C(C)C)=C(C)C1=O` [UQ10, reference compound], the “ATP production in VSMCs compared to the vehicle” value with VSMCs [3] was “only vitamin K2 (MK-7) increased ATP production in VSMCs significantly”. Further, the “hypoxia induced oxidative stress (counteraction)” value in the test on VSMCs [1] (10 μM, after 50 μM CoCl2 for 19 hours) is recorded as “This effect was not found”. In addition, in the test on VSMCs [4], the “ATP levels compared to CoCl2” value is on record as “significant higher ATP levels”. As to `CC(=O)CC(c1ccccc1)c1c(O)c2ccccc2oc1=O` (stereo not shown) [warfarin], in the test with VSMCs [5], the “intracellular oxidative stress caused by warfarin” value is given as “did cause intracellular oxidative stress; also recorded: results in increased intracellular oxidative stress”.
